{
  "source": "PubChem BioAssay (NCI)",
  "experiment_in_all_cases": "NCI anticancer screen, dose series, 48 h",
  "key": {"786-0 renal": {"test_system": "786-0 renal"}, "A498 renal": {"test_system": "A498 renal"}, "A549 NSCLC": {"test_system": "A549 NSCLC"}, "ACHN renal": {"test_system": "ACHN renal"}, "BT-549 breast": {"test_system": "BT-549 breast"}, "CAKI-1 renal": {"test_system": "CAKI-1 renal"}, "CCRF-CEM leukemia": {"test_system": "CCRF-CEM leukemia"}, "COLO 205 colon": {"test_system": "COLO 205 colon"}, "DLD-1 colon": {"test_system": "DLD-1 colon"}, "DMS 114 small cell lung": {"test_system": "DMS 114 small cell lung"}, "DMS 273 small cell lung": {"test_system": "DMS 273 small cell lung"}, "DU-145 prostate": {"test_system": "DU-145 prostate"}, "EKVX NSCLC": {"test_system": "EKVX NSCLC"}, "HCC-2998 colon": {"test_system": "HCC-2998 colon"}, "HCT-116 colon": {"test_system": "HCT-116 colon"}, "HCT-15 colon": {"test_system": "HCT-15 colon"}, "HL-60(TB) leukemia": {"test_system": "HL-60(TB) leukemia"}, "HOP-18 NSCLC": {"test_system": "HOP-18 NSCLC"}, "HOP-62 NSCLC": {"test_system": "HOP-62 NSCLC"}, "HOP-92 NSCLC": {"test_system": "HOP-92 NSCLC"}, "HS 578T breast": {"test_system": "HS 578T breast"}, "HT29 colon": {"test_system": "HT29 colon"}, "IGROV1 ovarian": {"test_system": "IGROV1 ovarian"}, "K-562 leukemia": {"test_system": "K-562 leukemia"}, "KM12 colon": {"test_system": "KM12 colon"}, "KM20L2 colon": {"test_system": "KM20L2 colon"}, "LOX IMVI melanoma": {"test_system": "LOX IMVI melanoma"}, "LXFL 529 NSCLC": {"test_system": "LXFL 529 NSCLC"}, "M14 melanoma": {"test_system": "M14 melanoma"}, "M19-MEL melanoma": {"test_system": "M19-MEL melanoma"}, "MALME-3M melanoma": {"test_system": "MALME-3M melanoma"}, "MCF7 breast": {"test_system": "MCF7 breast"}, "MDA-MB-231 breast": {"test_system": "MDA-MB-231 breast"}, "MDA-MB-435": {"test_system": "MDA-MB-435"}, "MDA-N": {"test_system": "MDA-N"}, "MOLT-4 leukemia": {"test_system": "MOLT-4 leukemia"}, "NCI-H226 lung": {"test_system": "NCI-H226 lung"}, "NCI-H23 lung": {"test_system": "NCI-H23 lung"}, "NCI-H460 lung": {"test_system": "NCI-H460 lung"}, "NCI-H522 lung": {"test_system": "NCI-H522 lung"}, "OVCAR-3 ovarian": {"test_system": "OVCAR-3 ovarian"}, "OVCAR-4 ovarian": {"test_system": "OVCAR-4 ovarian"}, "OVCAR-5 ovarian": {"test_system": "OVCAR-5 ovarian"}, "OVCAR-8 ovarian": {"test_system": "OVCAR-8 ovarian"}, "PC-3 prostate": {"test_system": "PC-3 prostate"}, "RPMI-8226 leukemia": {"test_system": "RPMI-8226 leukemia"}, "RXF 393 renal": {"test_system": "RXF 393 renal"}, "RXF-631 renal": {"test_system": "RXF-631 renal"}, "SF-268 CNS": {"test_system": "SF-268 CNS"}, "SF-295 CNS": {"test_system": "SF-295 CNS"}, "SF-539 CNS": {"test_system": "SF-539 CNS"}, "SK-MEL-2 melanoma": {"test_system": "SK-MEL-2 melanoma"}, "SK-MEL-28 melanoma": {"test_system": "SK-MEL-28 melanoma"}, "SK-MEL-5 melanoma": {"test_system": "SK-MEL-5 melanoma"}, "SK-OV-3 ovarian": {"test_system": "SK-OV-3 ovarian"}, "SN12C renal": {"test_system": "SN12C renal"}, "SNB-19 CNS": {"test_system": "SNB-19 CNS"}, "SNB-75 CNS": {"test_system": "SNB-75 CNS"}, "SNB-78 CNS": {"test_system": "SNB-78 CNS"}, "SR leukemia": {"test_system": "SR leukemia"}, "SW-620 colon": {"test_system": "SW-620 colon"}, "TK-10 renal": {"test_system": "TK-10 renal"}, "U251 CNS": {"test_system": "U251 CNS"}, "UACC-257 melanoma": {"test_system": "UACC-257 melanoma"}, "UACC-62 melanoma": {"test_system": "UACC-62 melanoma"}, "UO-31 renal": {"test_system": "UO-31 renal"}, "XF 498 CNS": {"test_system": "XF 498 CNS"}},
  "note": "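Cultured in 96-well plates, cells were exposed to test compound for 48 hours across five concentrations. TGI: total growth inhibition.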",
  "data": [
    {"molecule": "Cc1cccc(C)c1NC(=O)C(C#N)C1=C(Cl)C(=O)c2ccccc2C1=O", "note": "(configuration not stated)", "values": [
      {"measurement": "TGI", "setting": "786-0 renal", "result": 45.7, "unit": "µM"},
      {"measurement": "TGI", "setting": "A498 renal", "result": 29.3, "unit": "µM"},
      {"measurement": "TGI", "setting": "A549 NSCLC", "result": 41.6, "unit": "µM"},
      {"measurement": "TGI", "setting": "ACHN renal", "result": 28.8, "unit": "µM"},
      {"measurement": "TGI", "setting": "BT-549 breast", "result": 28.2, "unit": "µM"},
      {"measurement": "TGI", "setting": "CAKI-1 renal", "result": 38.1, "unit": "µM"},
      {"measurement": "TGI", "setting": "CCRF-CEM leukemia", "result": 35.1, "unit": "µM"},
      {"measurement": "TGI", "setting": "COLO 205 colon", "result": 10.2, "unit": "µM"},
      {"measurement": "TGI", "setting": "DLD-1 colon", "result": 30.1, "unit": "µM"},
      {"measurement": "TGI", "setting": "DMS 114 small cell lung", "result": 41.8, "unit": "µM"},
      {"measurement": "TGI", "setting": "DMS 273 small cell lung", "result": "> 100", "unit": "µM"},
      {"measurement": "TGI", "setting": "DU-145 prostate", "result": 28.1, "unit": "µM"},
      {"measurement": "TGI", "setting": "EKVX NSCLC", "result": 38.5, "unit": "µM"},
      {"measurement": "TGI", "setting": "HCC-2998 colon", "result": 32.2, "unit": "µM"},
      {"measurement": "TGI", "setting": "HCT-116 colon", "result": 30.6, "unit": "µM"},
      {"measurement": "TGI", "setting": "HCT-15 colon", "result": 36, "unit": "µM"},
      {"measurement": "TGI", "setting": "HL-60(TB) leukemia", "result": 38.2, "unit": "µM"},
      {"measurement": "TGI", "setting": "HOP-18 NSCLC", "result": 25.3, "unit": "µM"},
      {"measurement": "TGI", "setting": "HOP-62 NSCLC", "result": 32.9, "unit": "µM"},
      {"measurement": "TGI", "setting": "HOP-92 NSCLC", "result": 22.4, "unit": "µM"},
      {"measurement": "TGI", "setting": "HS 578T breast", "result": 52.1, "unit": "µM"},
      {"measurement": "TGI", "setting": "HT29 colon", "result": 39.8, "unit": "µM"},
      {"measurement": "TGI", "setting": "IGROV1 ovarian", "result": 31.8, "unit": "µM"},
      {"measurement": "TGI", "setting": "K-562 leukemia", "result": "> 36.4", "unit": "µM"},
      {"measurement": "TGI", "setting": "KM12 colon", "result": 34.5, "unit": "µM"},
      {"measurement": "TGI", "setting": "KM20L2 colon", "result": 50.7, "unit": "µM"},
      {"measurement": "TGI", "setting": "LOX IMVI melanoma", "result": 43.8, "unit": "µM"},
      {"measurement": "TGI", "setting": "LXFL 529 NSCLC", "result": 30, "unit": "µM"},
      {"measurement": "TGI", "setting": "M14 melanoma", "result": 21.4, "unit": "µM"},
      {"measurement": "TGI", "setting": "M19-MEL melanoma", "result": 16.6, "unit": "µM"},
      {"measurement": "TGI", "setting": "MALME-3M melanoma", "result": 30.4, "unit": "µM"},
      {"measurement": "TGI", "setting": "MCF7 breast", "result": 46.2, "unit": "µM"},
      {"measurement": "TGI", "setting": "MDA-MB-231 breast", "result": 49.7, "unit": "µM"},
      {"measurement": "TGI", "setting": "MDA-MB-435", "result": 34.3, "unit": "µM"},
      {"measurement": "TGI", "setting": "MDA-N", "result": 28.6, "unit": "µM"},
      {"measurement": "TGI", "setting": "MOLT-4 leukemia", "result": 26.9, "unit": "µM"},
      {"measurement": "TGI", "setting": "NCI-H226 lung", "result": 17.4, "unit": "µM"},
      {"measurement": "TGI", "setting": "NCI-H23 lung", "result": 44, "unit": "µM"},
      {"measurement": "TGI", "setting": "NCI-H460 lung", "result": 55.4, "unit": "µM"},
      {"measurement": "TGI", "setting": "NCI-H522 lung", "result": 26.2, "unit": "µM"},
      {"measurement": "TGI", "setting": "OVCAR-3 ovarian", "result": 26.9, "unit": "µM"},
      {"measurement": "TGI", "setting": "OVCAR-4 ovarian", "result": 30.3, "unit": "µM"},
      {"measurement": "TGI", "setting": "OVCAR-5 ovarian", "result": 37.4, "unit": "µM"},
      {"measurement": "TGI", "setting": "OVCAR-8 ovarian", "result": 48.5, "unit": "µM"},
      {"measurement": "TGI", "setting": "PC-3 prostate", "result": 28.9, "unit": "µM"},
      {"measurement": "TGI", "setting": "RPMI-8226 leukemia", "result": 53.6, "unit": "µM"},
      {"measurement": "TGI", "setting": "RXF 393 renal", "result": "> 47.8", "unit": "µM"},
      {"measurement": "TGI", "setting": "RXF-631 renal", "result": 43, "unit": "µM"},
      {"measurement": "TGI", "setting": "SF-268 CNS", "result": 31.6, "unit": "µM"},
      {"measurement": "TGI", "setting": "SF-295 CNS", "result": 32.5, "unit": "µM"},
      {"measurement": "TGI", "setting": "SF-539 CNS", "result": 48.1, "unit": "µM"},
      {"measurement": "TGI", "setting": "SK-MEL-2 melanoma", "result": 29.2, "unit": "µM"},
      {"measurement": "TGI", "setting": "SK-MEL-28 melanoma", "result": 38.1, "unit": "µM"},
      {"measurement": "TGI", "setting": "SK-MEL-5 melanoma", "result": 26.7, "unit": "µM"},
      {"measurement": "TGI", "setting": "SK-OV-3 ovarian", "result": 43.3, "unit": "µM"},
      {"measurement": "TGI", "setting": "SN12C renal", "result": 32, "unit": "µM"},
      {"measurement": "TGI", "setting": "SNB-19 CNS", "result": 32.4, "unit": "µM"},
      {"measurement": "TGI", "setting": "SNB-75 CNS", "result": 29.2, "unit": "µM"},
      {"measurement": "TGI", "setting": "SNB-78 CNS", "result": 56.1, "unit": "µM"},
      {"measurement": "TGI", "setting": "SR leukemia", "result": "> 45.8", "unit": "µM"},
      {"measurement": "TGI", "setting": "SW-620 colon", "result": 34.3, "unit": "µM"},
      {"measurement": "TGI", "setting": "TK-10 renal", "result": 33.7, "unit": "µM"},
      {"measurement": "TGI", "setting": "U251 CNS", "result": 42.7, "unit": "µM"},
      {"measurement": "TGI", "setting": "UACC-257 melanoma", "result": 21.6, "unit": "µM"},
      {"measurement": "TGI", "setting": "UACC-62 melanoma", "result": 33.4, "unit": "µM"},
      {"measurement": "TGI", "setting": "UO-31 renal", "result": 26.6, "unit": "µM"},
      {"measurement": "TGI", "setting": "XF 498 CNS", "result": 28.9, "unit": "µM"}
    ]}
  ]
}
